Assay results reported in BindingDB's records for doi:10.1021/jm970640l (University of Versailles Saint-Quentin-en-Yvelines, 1998).

Assay: Inhibitory activity against hydrolysis of Gly-Pro-pNa by Dipeptidyl peptidase IV purified from CD26-negative C8166 cells

CCCCCCCC[S+](CCCCCCCC)Cc1ccc2cc1C(=O)NCC(=O)NCC(=O)NCCCC[C@H](N)C(=O)N1CCC[C@H]1C(=O)N2 [Cyclo(Lys(alphaH2+)-Pro-Aba-[CH2SOct2-]-Gly2-), 2CF3COO-]
IC50: 0.63 µM
